# Reference: patent US4644085A, “Rooperol and its derivates” (Rooperol (NA) NV, priority 1985, dated 1987)
# Key:
# [1] = tested on: cancer; settings: reported in EPO Patent Application No. 83103765.0; cited from earlier work
# [2] = tested on: P27-HUMAN MESOTHELIOMA; assay: Inhibition of cell growth: P27 human mesothelioma; type: cell-based; settings: 96 h, media, usually four days, read-out: MINIMUM INHIBITORY CONCENTRATIONS (RANGE) WHICH PRODUCE APPROXIMATELY 50% CELL GROWTH REDUCTION
# Experimental: (§1) The cell cultures were grown under standard conditions at 37° C. in Eagle's Minimal Essential Medium (M.E.M., Gibco), with glutamine and non-essential amino acids, supplemented with 10% foetal calf serum (State Vaccine Institute, Cape Town). Cells for subcultures were obtained from 90-100% confluent cell cultures by trypsinisation with Ca^++ Mg^++ --free EDTA-Dulbecco Buffer, containing 0.25% trypsin. Trypsin was inactivated by placing the harvested cell suspension into M.E.M. containing 10% foetal calf serum. The cell suspensions were then suitably diluted to the final volume, depending on the number of cells obtained and the growth profile of the cell type. The diluted cell suspensions were then dispensed at the rate of 1.0 ml into prepared cell culture flasks containing 8.9 ml culture media. These cultures were incubated for 24 hours and the media changed before adding the test compounds.
# (§2) The test compounds were dissolved in dimethylsulphoxide (Merck) and added at the rate of 0.1 ml to the media in a dilution to give the desired end concentration.
# (§3) In each series of experiments, control cultures were treated with equivalent amounts of solvent without the test compound. The cultures were examined daily usually for a period of four days and cell growth and other cytopathic effects were records. Abnormal cell patterns and sizes were also determined during counting.
# (v) P27 Human Mesothelioma Cells
# [3] = tested on: "LOOT'S" CELLS HUMAN ADENOCARCINOMA; assay: Inhibition of cell growth: "Loot's" cells human adenocarcinoma; type: cell-based; settings: 96 h, media, usually four days, read-out: MINIMUM INHIBITORY CONCENTRATIONS (RANGE) WHICH PRODUCE APPROXIMATELY 50% CELL GROWTH REDUCTION
# Experimental: as §1, §2, §3
# (vi) "Loots" cells Human Derived Adenocarcinoma
# [4] = tested on: MOUSE MELANOMA B16-BL6; assay: Inhibition of cell growth: mouse melanoma B16-BL6; type: cell-based; settings: 96 h, media, usually four days, read-out: MINIMUM INHIBITORY CONCENTRATIONS (RANGE) WHICH PRODUCE APPROXIMATELY 50% CELL GROWTH REDUCTION
# Experimental: as §1, §2, §3
# (ii) Mel B16 BL06 Mouse Melanoma
# [5] = tested on: HUMAN […] HOC; assay: Inhibition of cell growth: human oesophagal carcinoma HOC; type: cell-based; settings: 96 h, read-out: MINIMUM INHIBITORY CONCENTRATIONS (RANGE) WHICH PRODUCE APPROXIMATELY 50% CELL GROWTH REDUCTION
# Experimental: as §1, §2, §3
# (iii) HOC Human Oesophagal Carcinoma
# [6] = tested on: HUMAN CERVICAL CANCER HeLa ATCC No. CCL2; assay: Inhibition of cell growth: human cervical cancer HeLa; type: cell-based; settings: 96 h, media, usually four days, read-out: MINIMUM INHIBITORY CONCENTRATIONS (RANGE) WHICH PRODUCE APPROXIMATELY 50% CELL GROWTH REDUCTION
# Experimental: as §1, §2, §3
# (iv) HeLa Human Cervical Cancer
# [7] = tested on: MOUSE SARCOMA M(52)B; assay: Inhibition of cell growth: mouse sarcoma M(52)B; type: cell-based; settings: 96 h, media, usually four days, read-out: MINIMUM INHIBITORY CONCENTRATIONS (RANGE) WHICH PRODUCE APPROXIMATELY 50% CELL GROWTH REDUCTION
# Experimental: as §1, §2, §3
# (i) M (52) B Mouse Sarcoma
# [8] = tested on: CHANG CO[…] No. CCL20.2; assay: Inhibition of cell growth: Chang conjunctival; type: cell-based; settings: 96 h, read-out: MINIMUM INHIBITORY CONCENTRATIONS (RANGE) WHICH PRODUCE APPROXIMATELY 50% CELL GROWTH REDUCTION
# Experimental: as §1, §2, §3
# (vii) Chang Chang Conjunctival cells
# [9] = Acute toxicity in rats; settings: rat, in vivo, po, P.O., single dose in vegetable oil, 7 days observation, read-out: MINIMUM TOLERATED SINGLE DOSE
# Experimental: (§4) Some compounds were subjected to preliminary acute toxicity tests in mice and rats. Solutions or suspensions of the selected compounds were prepared in vegetable oil. The volumes administered were kept constant at 10.0 ml per kg. In each case equal numbers of male and female animals were treated with a single dose. All animals were observed over 7 days for signs of toxic and/or pharmacodynamic effects. Necropsies were performed on all surviving animals.
# [10] = Acute toxicity in mice; settings: mouse, in vivo, po, P.O., single dose in vegetable oil, 7 days observation, read-out: MINIMUM TOLERATED SINGLE DOSE
# Experimental: as §4
compound,measurement,setting,value
"OC[C@H]1O[C@@H](Oc2ccc(C#CC/C=C/c3ccc(O[C@@H]4O[C@H](CO)[C@@H](O)[C@H](O)[C@H]4O)c(O)c3)cc2O)[C@H](O)[C@@H](O)[C@@H]1O [Hypoxoside, (E)-1,5-bis(3',4'-dihydroxyphenyl)pent-4-en-1-yne 4',4'-di-B-D-glucopyranoside]",anticancer activity,[1],has anticancer activity
"Oc1ccc(C#CC/C=C/c2ccc(O)c(O)c2)cc1O [Product 1, 3',3',4',4',-tetrahydroxyrooperol]",IC50,[2],10 to 25 µg/mL
same,IC50,[3],12.5 to 25 µg/mL
same,IC50,[4],10 to 25 µg/mL
same,IC50,[5],25 to 50 µg/mL
same,IC50,[6],20 to 40 µg/mL
same,IC50,[7],12.5 to 25 µg/mL
same,IC50,[8],20 to 25 µg/mL
C=CCC#Cc1ccccc1 [Product 2],MTD at 168 h,[9],500 mg/kg
same,MTD at 168 h,[10],≥ 1000 mg/kg
same,IC50,[5],50 to 100 µg/mL
same,IC50,[6],50 to 75 µg/mL
C(#Cc1ccccc1)C/C=C/c1ccccc1 [Product 3],MTD at 168 h,[9],1500 mg/kg
same,IC50,[2],25 to 50 µg/mL
same,MTD at 168 h,[10],500 mg/kg
same,IC50,[5],25 to 50 µg/mL
same,IC50,[6],40 to 60 µg/mL
same,IC50,[7],50 to 75 µg/mL
COc1ccc(C#CC/C=C/c2ccc(OC)cc2)cc1 [Product 5],IC50,[5],≥ 25 µg/mL
COc1ccc(C#CC/C=C/c2ccccc2)cc1 [Product 6],IC50,[5],10 to 20 µg/mL
same,IC50,[6],60 to 100 µg/mL
C(#Cc1ccc2c(c1)OCO2)C/C=C/c1ccc2c(c1)OCO2 [Product 7],IC50,[7],60 to 80 µg/mL
COc1ccc(C#CC/C=C/c2ccc(OC)c(OC)c2)cc1OC [Product 8],IC50,[2],40 to 60 µg/mL
same,IC50,[6],60 to 100 µg/mL
same,IC50,[7],60 to 80 µg/mL
COc1ccc(C#CC/C=C/c2ccccc2)cc1OC [Product 9],IC50,[6],60 to 100 µg/mL
Brc1ccc(C#CC/C=C/c2ccccc2)cc1 [Product 10],IC50,[6],25 to 50 µg/mL
OC(CCl)CC#Cc1ccccc1 (centres unmarked) [Product 11],MTD at 168 h,[10],≥ 1000 mg/kg
same,IC50,[6],25 to 50 µg/mL
C=CCC#CCOC1CCCCO1 (centres unmarked) [Product 13],IC50,[6],50 to 100 µg/mL
COc1ccc(C#CC(O)/C=C/c2ccco2)cc1OC (centres unmarked) [Product 15],IC50,[6],25 to 50 µg/mL
OC(C#Cc1ccccc1)/C=C/c1ccccc1 (centres unmarked) [Product 16],MTD at 168 h,[9],500 mg/kg
same,IC50,[2],25 to 50 µg/mL
same,MTD at 168 h,[10],500 mg/kg
same,IC50,[3],12.5 to 25 µg/mL
same,IC50,[4],20 to 50 µg/mL
same,IC50,[6],25 to 50 µg/mL
same,IC50,[7],20 to 40 µg/mL
OC(C#Cc1ccccc1)/C=C/c1ccco1 (centres unmarked) [Product 17],MTD at 168 h,[9],500 mg/kg
same,IC50,[2],20 to 50 µg/mL
same,MTD at 168 h,[10],500 mg/kg
same,IC50,[6],20 to 25 µg/mL
COc1ccc(C#CC(O)/C=C/c2ccccc2)cc1OC (centres unmarked) [Product 18],IC50,[6],25 to 50 µg/mL
OC(C#Cc1ccccc1)C=C(Cl)c1ccccc1 (centres unmarked) [Product 19],MTD at 168 h,[10],250 mg/kg
same,IC50,[6],20 to 40 µg/mL
C=CC(O)C#Cc1ccccc1 (centres unmarked) [Product 20],IC50,[6],25 to 50 µg/mL
C/C=C/C(O)C#CCOC1CCCCO1 (centres unmarked) [Product 21],IC50,[6],25 to 50 µg/mL
CCOC(=O)C(=Cc1ccccc1)CC#Cc1ccccc1 [Product 23],MTD at 168 h,[10],750 mg/kg
same,IC50,[3],25 to 50 µg/mL
same,IC50,[5],20 to 50 µg/mL
same,IC50,[6],60 to 100 µg/mL
same,IC50,[7],75 to 100 µg/mL
same,IC50,[8],25 to 75 µg/mL
C(#Cc1ccccc1)CC1CO1 (centres unmarked) [Product 24],IC50,[6],25 to 50 µg/mL
O=C(C#Cc1ccccc1)/C=C/c1ccccc1 [Product 25],IC50,[4],12.5 to 25 µg/mL
same,IC50,[6],5 to 10 µg/mL
same,IC50,[8],2.5 to 10 µg/mL
C=CC(=O)C#Cc1ccccc1 [Product 26],IC50,[6],20 to 40 µg/mL
same,IC50,[8],2.5 to 10 µg/mL
C/C=C/C(O)C#CCO (centres unmarked) [Product 29],IC50,[6],50 µg/mL
C=CCC#CCO [Product 30],IC50,[6],50 µg/mL
OCC#CC/C=C/c1ccccc1 [Product 31],IC50,[6],25 to 50 µg/mL
